This note sets out measurements from patent US8846947B2, “Benzimidazoles and related analogs as sirtuin modulators” (GlaxoSmithKline LLC, priority 2008, dated 2014).

This test has as its target T1, SIRT1 (Homo sapiens, UniProt Q96EB6).
T1 sequence (Q96EB6 1-747): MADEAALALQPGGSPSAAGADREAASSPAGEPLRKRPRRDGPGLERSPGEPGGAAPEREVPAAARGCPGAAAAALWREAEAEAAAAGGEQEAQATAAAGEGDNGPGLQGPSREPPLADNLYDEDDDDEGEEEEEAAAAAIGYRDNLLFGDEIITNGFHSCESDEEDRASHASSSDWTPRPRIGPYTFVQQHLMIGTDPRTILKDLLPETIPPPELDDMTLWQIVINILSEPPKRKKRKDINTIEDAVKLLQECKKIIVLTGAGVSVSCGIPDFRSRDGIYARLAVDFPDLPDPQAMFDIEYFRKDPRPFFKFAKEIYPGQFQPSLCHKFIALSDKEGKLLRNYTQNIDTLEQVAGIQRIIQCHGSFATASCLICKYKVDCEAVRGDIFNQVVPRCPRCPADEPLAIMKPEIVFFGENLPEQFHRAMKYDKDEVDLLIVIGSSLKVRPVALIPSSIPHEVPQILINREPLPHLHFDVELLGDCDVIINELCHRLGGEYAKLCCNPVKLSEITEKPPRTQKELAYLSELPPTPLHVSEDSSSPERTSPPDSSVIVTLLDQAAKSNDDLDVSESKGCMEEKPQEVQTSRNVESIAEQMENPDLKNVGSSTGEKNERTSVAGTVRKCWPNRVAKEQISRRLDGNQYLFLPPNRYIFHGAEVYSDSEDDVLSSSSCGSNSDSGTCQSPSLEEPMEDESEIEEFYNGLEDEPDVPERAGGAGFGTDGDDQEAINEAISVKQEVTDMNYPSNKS
Kind of test: Mass spectrometry based SIRT1 deacetylase activation assay (acetylated p53-derived peptide substrate). Format: biochemical. As to conditions: 0.5 μM peptide substrate, 120 μM βNAD+, 10 nM SIRT1, 25 minutes at 25° C.
As for `O=C(Nc1cccc(CN2CCOCC2)n1)c1cccc2[nH]c(-c3ccccc3C(F)(F)F)nc12` [Compound 672], the EC1.5 result was “A (EC1.5<1.0 uM)” and the “Fold Act. (percent maximum fold activation)” value is “A (Fold activation >200%)”.

Turning to `O=C(Nc1ccc(CN2CCOCC2)cn1)c1cccc2[nH]c(-c3ccccc3C(F)(F)F)nc12` [Compound 673], the EC1.5 result is recorded as “A (EC1.5<1.0 uM)” and the “Fold Act. (percent maximum fold activation)” value was “A (Fold activation >200%)”.

For `O=C(Nc1ccc(CN2CCOCC2)nc1)c1cccc2[nH]c(-c3ccccc3C(F)(F)F)nc12` [Compound 674], the EC1.5 entry was “A (EC1.5<1.0 uM)” and the “Fold Act. (percent maximum fold activation)” value was “A (Fold activation >200%)”.

`O=C(Nc1cccc(CN2CCOCC2)n1)c1cccc2[nH]c(-c3ccc(Cl)cc3C(F)(F)F)nc12` [Compound 675]: the EC1.5 entry was “A (EC1.5<1.0 uM)” and the “Fold Act. (percent maximum fold activation)” value is “A (Fold activation >200%)”.

Take `O=C(Nc1ccc(CN2CCOCC2)cn1)c1cccc2[nH]c(-c3ccc(Cl)cc3C(F)(F)F)nc12` [Compound 676]: the EC1.5 entry is reported as “A (EC1.5<1.0 uM)” and the “Fold Act. (percent maximum fold activation)” value is “A (Fold activation >200%)”.

Take `O=C(Nc1cccc(CN2CCOCC2)n1)c1cccc2[nH]c(-c3cc(F)ccc3C(F)(F)F)nc12` [Compound 677]: the EC1.5 result is on record as “A (EC1.5<1.0 uM)” and the “Fold Act. (percent maximum fold activation)” value is recorded as “A (Fold activation >200%)”.

In the case of `O=C(Nc1cccc(OCC(O)CO)c1)c1cccc2[nH]c(-c3ccc(Cl)cc3C(F)(F)F)nc12` (stereo not shown) [Compound 678], the EC1.5 entry is reported as “A (EC1.5<1.0 uM)” and the “Fold Act. (percent maximum fold activation)” value is on record as “A (Fold activation >200%)”.

On to `O=C(Nc1cccc(OCC(O)CO)c1)c1cccc2[nH]c(-c3ccc(F)cc3C(F)(F)F)nc12` (stereo not shown) [Compound 679], for which the EC1.5 result is listed as “A (EC1.5<1.0 uM)” and the “Fold Act. (percent maximum fold activation)” value is reported as “A (Fold activation >200%)”.

In the case of `O=C(Nc1cccc(OCC(O)CO)c1)c1cccc2[nH]c(-c3cc(F)ccc3C(F)(F)F)nc12` (stereo not shown) [Compound 680], the EC1.5 entry was “A (EC1.5<1.0 uM)” and the “Fold Act. (percent maximum fold activation)” value is listed as “A (Fold activation >200%)”.

As for `O=C(Nc1nc(CN2CCOCC2)cs1)c1cccc2[nH]c(-c3ccc(F)cc3C(F)(F)F)nc12` [Compound 681, 2-(4-fluoro-2-(trifluoromethyl)phenyl)-N-(4-(morpholinomethyl)thiazol-2-yl)-1H-benzo[d]imidazole-4-carboxamide], the EC1.5 entry is recorded as “A (EC1.5<1.0 uM)” and the “Fold Act. (percent maximum fold activation)” value is recorded as “A (Fold activation >200%)”.

As for `O=C(Nc1cccc(CN2CCNCC2)n1)c1cccc2[nH]c(-c3ccccc3C(F)(F)F)nc12` [Compound 682], the EC1.5 result was “A (EC1.5<1.0 uM)” and the “Fold Act. (percent maximum fold activation)” value was “A (Fold activation >200%)”.

With `O=C(Nc1ccc(CN2CCCC2)nc1)c1cccc2[nH]c(-c3ccccc3C(F)(F)F)nc12` [Compound 683], the EC1.5 entry is given as “A (EC1.5<1.0 uM)” and the “Fold Act. (percent maximum fold activation)” value is listed as “A (Fold activation >200%)”.

On to `O=C(Nc1ccc(CN2CCOCC2)nc1)c1cccc2[nH]c(-c3ccc(Cl)cc3C(F)(F)F)nc12` [Compound 684], for which the EC1.5 entry is “A (EC1.5<1.0 uM)” and the “Fold Act. (percent maximum fold activation)” value is reported as “A (Fold activation >200%)”.

In the case of `O=C(Nc1ccc(CN2CCCC2)nc1)c1cccc2[nH]c(-c3ccc(Cl)cc3C(F)(F)F)nc12` [Compound 685], the EC1.5 entry is reported as “A (EC1.5<1.0 uM)” and the “Fold Act. (percent maximum fold activation)” value is on record as “A (Fold activation >200%)”.

Take `O=C(Nc1ccc(CN2CCOCC2)nc1)c1cccc2[nH]c(-c3cc(F)ccc3C(F)(F)F)nc12` [Compound 686, 2-(5-fluoro-2-(trifluoromethyl)phenyl)-N-(6-(morpholinomethyl)pyridin-3-yl)-1H-benzo[d]imidazole-4-carboxamide]: the EC1.5 result is recorded as “A (EC1.5<1.0 uM)” and the “Fold Act. (percent maximum fold activation)” value is “A (Fold activation >200%)”.

Turning to `O=C(Nc1ccc(CN2CCCC2)nc1)c1cccc2[nH]c(-c3cc(F)ccc3C(F)(F)F)nc12` [Compound 687], the EC1.5 entry is on record as “A (EC1.5<1.0 uM)” and the “Fold Act. (percent maximum fold activation)” value was “A (Fold activation >200%)”.

As to `O=C(Nc1ccccn1)c1cccc2[nH]c(-c3cc(N4CCCC4)ccc3C(F)(F)F)nc12` [Compound 688], the EC1.5 result was “C (EC1.5 >25 uM)” and the “Fold Act. (percent maximum fold activation)” value is “B (Fold Activation <200%)”.

As for `O=C(Nc1nccs1)c1cc(N2CCOCC2)cc2[nH]c(-c3ccc(F)cc3C(F)(F)F)nc12` [Compound 689], the EC1.5 result is on record as “A (EC1.5<1.0 uM)” and the “Fold Act. (percent maximum fold activation)” value is listed as “A (Fold activation >200%)”.

For `O=C(Nc1ccccn1)c1cc(N2CCOCC2)cc2[nH]c(-c3ccc(F)cc3C(F)(F)F)nc12` [Compound 690], the EC1.5 entry was “A (EC1.5<1.0 uM)” and the “Fold Act. (percent maximum fold activation)” value was “A (Fold activation >200%)”.

Regarding `O=C(Nc1cccnc1)c1cc(N2CCOCC2)cc2[nH]c(-c3ccc(F)cc3C(F)(F)F)nc12` [Compound 691], the EC1.5 result is “A (EC1.5<1.0 uM)” and the “Fold Act. (percent maximum fold activation)” value is given as “A (Fold activation >200%)”.

Regarding `O=C(Nc1cccnn1)c1cc(N2CCOCC2)cc2[nH]c(-c3ccc(F)cc3C(F)(F)F)nc12` [Compound 692], the EC1.5 entry is “A (EC1.5<1.0 uM)” and the “Fold Act. (percent maximum fold activation)” value was “A (Fold activation >200%)”.

As to `O=C(Nc1nccs1)c1cncc2[nH]c(-c3ccc(F)cc3C(F)(F)F)nc12` [Compound 693, 2-(4-fluoro-2-trifluoromethyl-phenyl)-3H-imidazo[4,5-c]pyridine-7-carboxylic acid thiazol-2-ylamide], the EC1.5 entry is listed as “B (EC1.5 1-25 uM)” and the “Fold Act. (percent maximum fold activation)” value is “B (Fold Activation <200%)”.

For the molecule `O=C(Nc1ccccn1)c1cncc2[nH]c(-c3ccc(F)cc3C(F)(F)F)nc12` [Compound 694], the EC1.5 result is on record as “B (EC1.5 1-25 uM)” and the “Fold Act. (percent maximum fold activation)” value is given as “B (Fold Activation <200%)”.

`O=C(Nc1cccnc1)c1cncc2[nH]c(-c3ccc(F)cc3C(F)(F)F)nc12` [Compound 695]: the EC1.5 result is on record as “A (EC1.5<1.0 uM)” and the “Fold Act. (percent maximum fold activation)” value is on record as “A (Fold activation >200%)”.

Turning to `O=C(Nc1cccnn1)c1cncc2[nH]c(-c3ccc(F)cc3C(F)(F)F)nc12` [Compound 696], the EC1.5 entry is “B (EC1.5 1-25 uM)” and the “Fold Act. (percent maximum fold activation)” value is “A (Fold activation >200%)”.

With `Cc1cnc(NC(=O)c2cncc3[nH]c(-c4ccc(F)cc4C(F)(F)F)nc23)s1` [Compound 697], the EC1.5 entry is “A (EC1.5<1.0 uM)” and the “Fold Act. (percent maximum fold activation)” value is given as “A (Fold activation >200%)”.

With `O=C(Nc1cccc(OC[C@H](O)CO)c1)c1cccc2[nH]c(-c3ccc(Cl)cc3C(F)F)nc12` [Compound 698], the EC1.5 entry is given as “A (EC1.5<1.0 uM)” and the “Fold Act. (percent maximum fold activation)” value is on record as “A (Fold activation >200%)”.

`O=C(Nc1cccc(OC[C@@H](O)CO)c1)c1cccc2[nH]c(-c3ccc(Cl)cc3C(F)F)nc12` [Compound 699]: the EC1.5 entry is “A (EC1.5<1.0 uM)” and the “Fold Act. (percent maximum fold activation)” value is reported as “A (Fold activation >200%)”.

`O=C(Nc1cccc(OC[C@@H](O)CO)c1)c1cccc2[nH]c(-c3ccccc3C(F)F)nc12` [Compound 700]: the EC1.5 result was “A (EC1.5<1.0 uM)” and the “Fold Act. (percent maximum fold activation)” value is given as “A (Fold activation >200%)”.

For `O=C(Nc1nc(CN2CCOCC2)cs1)c1cccc2[nH]c(-c3cc(F)ccc3C(F)(F)F)nc12` [Compound 701], the EC1.5 entry is listed as “A (EC1.5<1.0 uM)” and the “Fold Act. (percent maximum fold activation)” value was “A (Fold activation >200%)”.

In the case of `O=C(Nc1nccs1)c1cccc2[nH]c(-c3cnccc3C(F)(F)F)nc12` [Compound 702], the EC1.5 result is listed as “A (EC1.5<1.0 uM)” and the “Fold Act. (percent maximum fold activation)” value is listed as “A (Fold activation >200%)”.

As for `Cc1cnc(NC(=O)c2cccc3[nH]c(-c4cnccc4C(F)(F)F)nc23)s1` [Compound 703, N-(5-methylthiazol-2-yl)-2-(4-(trifluoromethyl)pyridin-3-yl)-1H-benzo[d]imidazole-4-carboxamide], the EC1.5 result was “A (EC1.5<1.0 uM)” and the “Fold Act. (percent maximum fold activation)” value was “A (Fold activation >200%)”.

Take `O=C(Nc1ccccn1)c1cccc2[nH]c(-c3cnccc3C(F)(F)F)nc12` [Compound 704]: the EC1.5 result is given as “A (EC1.5<1.0 uM)” and the “Fold Act. (percent maximum fold activation)” value was “A (Fold activation >200%)”.

For the molecule `O=C(Nc1cccc(OCC(O)CO)c1)c1cccc2[nH]c(-c3ccc(F)cc3C(F)(F)F)nc12` (stereo not shown) [Compound 705], the EC1.5 entry was “A (EC1.5<1.0 uM)” and the “Fold Act. (percent maximum fold activation)” value was “A (Fold activation >200%)”.

Take `CC1(C)CN(c2ccc(-c3nc4c(C(=O)Nc5nccs5)cccc4[nH]3)c(C(F)(F)F)c2)CCO1` [Compound 706]: the EC1.5 entry was “A (EC1.5<1.0 uM)” and the “Fold Act. (percent maximum fold activation)” value is listed as “A (Fold activation >200%)”.
